From BigSolDB 2.1

Cc1nc(-c2ccc(OCC(C)C)c(C#N)c2)sc1C(=O)O
solubility (mole fraction)
Settings | 293.15 K | 298.15 K | 303.15 K | 308.15 K | 313.15 K | 318.15 K | 323.15 K | 328.15 K
in acetone | 0.00623 | 0.00743 | 0.00921 | 0.0107 | 0.0129 | 0.0147 | 0.0162 | 0.0171
in ethanol | 0.00122 | 0.00177 | 0.00269 | 0.00401 | 0.00584 | 0.00836 | 0.0109 | 0.0143
in ethyl acetate | 0.00376 | 0.00456 | 0.00516 | 0.00643 | 0.00732 | 0.00828 | 0.00975 | 0.0114
in methanol | 0.000524 | 0.000856 | 0.00117 | 0.00162 | 0.00229 | 0.00325 | 0.0045 | 0.00685
